The target in experiment [1] is T1, KRAS_G12D and cRAF (Homo sapiens, UniProt P01116, G12D).
T1 construct: purchased
Kind of experiment: Inhibition of KRAS_G12D/cRAF binding (Cisbio binding kit, 665/615 ratio), Effect Embodiment B. The note with it: read-out: GTP-KRAS-G12D:CRAF IC50. In short, it runs like this:
(§1)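 Compounds are tested over eleven threefold dilution steps in duplicate, with final DMSO at 1%.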

The target of experiment [2] is T2, KRAS_WT and SOS1 (Homo sapiens, UniProt P01116).
T2 construct: purchased
Kind of experiment: Inhibition of KRAS_WT/SOS1 binding (Cisbio binding kit, 665/615 ratio), Effect Embodiment C. As to conditions: read-out: GTP-KRAS-WT:SOS1 IC50. The procedure, abridged:
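Compounds tested as 3-fold, 11-point dilutions in duplicate at 1% DMSO final against the KRAS_WT/SOS1 binding system. IC50 derived by nonlinear regression fit.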

For experiment [3], the target named is T3, KRAS-G12D and SOS1 (Homo sapiens, UniProt P01116, G12D).
T3 construct: purchased
Kind of experiment: Inhibition of KRAS-G12D/SOS1 binding (Cisbio binding kit, 665/615 ratio), Effect Embodiment A. The note with it: read-out: GTP-KRAS-G12D:SOS1 IC50. The procedure, abridged: as §1

Values joined by “and” are separate entries in the source; they are usually repeats but may differ in a detail not shown here. Equal entries are not always repeated. Structures can show the parent of a compound that is named as a salt.

Regarding `CO[C@@H]1C[C@@H](COc2nc(N3CC4CCC(C3)N4)c3cnc(-c4cc(O)cc5ccccc45)c(F)c3n2)N(C)C1` [Compound 134, 4-(4-((1R,5S)-3,8-diazabicyclo[3.2.1]octan-3-yl)-8-fluoro-2-((2S,4R)-4-methxoy-1-methylpyrrolidin-2-yl)methoxy)pyridinyl[4,3-d]pyrimidin-7-yl)naphthalen-2-ol diformate], the IC50 in experiment [1] was found to be 26.2 nM; in experiment [2], 498 nM; in experiment [3], 17.9 nM.
Turning to `CN1CCC[C@@]1(C)COc1nc(N2CC3CCC(C2)N3)c2cnc(-c3cc(O)cc4ccccc34)c(F)c2n1` [Compound 136, 4-(4-((1R,5S)-3,8-diazabicyclo[3.2.1]octan-3-yl)-2-((S)-1,2-methylpyrrolidin-2-yl)methoxy)-8-fluoropyridinyl[4,3-d]pyrimidin-7-yl)naphthalen-2-ol diformate], the IC50 in experiment [1] turned out to be 67.5 nM; in experiment [2], 1160 nM; in experiment [3], 30.7 nM.
In the same order, the values of `CN1CC2(CC2)C[C@H]1COc1nc(N2CC3CCC(C2)N3)c2cnc(-c3cc(O)cc4ccccc34)c(F)c2n1` [Compound 137, 4-(4-((1R,5S)-3,8-diazabicyclo[3.2.1]octan-3-yl)-8-fluoro-2-((S)-5-methyl-5-azaspiro[2.4]heptan-6-yl)methoxy)pyridin[4,3-d]pyrimidin-7-yl)naphthalen-2-ol diformate] are 10.7 nM, 123 nM and 13.3 nM.
In the same order, the values of `CN1CC(C)(C)C[C@H]1COc1nc(N2CC3CCC(C2)N3)c2cnc(-c3cc(O)cc4ccccc34)c(F)c2n1` [Compound 139, 4-(4-((1R,5S)-3,8-diazabicyclo[3.2.1]octan-3-yl)-8-fluoro-2-((S)-1,4,4-trimethylpyrrolidin-2-yl)methoxy)pyridinyl[4,3-d]pyrimidin-7-yl)naphthalen-2-ol diformate] are 129 nM, 1920 nM and 37.2 nM.
Taken in the same sequence, the figures for `CN1C[C@@H]2C[C@@H]2[C@H]1COc1nc(N2CC3CCC(C2)N3)c2cnc(-c3cc(O)cc4ccccc34)c(F)c2n1` [Compound 140, 4-(4-((1R,5S)-3,8-diazabicyclo[3.2.1]octan-3-yl)-8-fluoro-2-((1S,2S,5R)-3-methyl-3-azabicyclo[3.1.0]hexan-2-yl)methoxy)pyridin[4,3-d]pyrimidin-7-yl)naphthalen-2-ol dihydrochloride] were 95.7 nM, 1360 nM and 32.8 nM.
`C[C@@H]1C[C@@H](COc2nc(N3CC4CCC(C3)N4)c3cnc(-c4cc(O)cc5ccccc45)c(F)c3n2)N(C)C1` [Compound 142, 4-(4-((1R,5S)-3,8-diazabicyclo[3.2.1]octan-3-yl)-2-((2S,4R)-1,4-methylpyrrolidin-2-yl)methoxy)-8-fluoropyridinyl[4,3-d]pyrimidin-7-yl)naphthalen-2-ol diformate]: the values for the IC50 in experiment [1], in experiment [2] and in experiment [3] were 30.5 nM, 394 nM and 16 nM, respectively.
For the compound `CN(C)CCCOc1nc(N2C[C@H]3CC[C@@H](C2)N3)c2ccc(-c3cc(O)cc4ccccc34)c(F)c2n1` [Compound 143, 4-(4-((1R,5S)-3,8-diazabicyclo[3.2.1]octan-3-yl)-2-(3-(dimethylamino)propoxy)-8-fluoroquinazolin-7-yl)naphthalen-2-ol], the IC50 in experiment [1] was 47.7 nM; in experiment [2], 765 nM; in experiment [3] it was 16.7 nM and 21.2 nM.
On to `CN1CCC[C@H]1COc1nc(N2C[C@H]3CC[C@@H](C2)N3)c2ccc(-c3cc(O)cc4ccccc34)c(F)c2n1` [Compound 144, 4-(4-((1R,5S)-3,8-diazabicyclo[3.2.1]octan-3-yl)-8-fluoro-2-((S)-1-methylpyrrolidin-2-yl)methoxy)quinazolin-7-yl)naphthalen-2-ol tritrifluoroacetate], for which the IC50 in experiment [1] amounted to 17.9 nM; in experiment [2] it was 180 nM; in experiment [3], 14.4 nM.
Taken in the same sequence, the figures for `CN1CCC[C@H]1COc1nc(N2C[C@H]3C=C[C@@H](C2)N3)c2cnc(-c3cc(O)cc4ccccc34)c(F)c2n1` [Compound 159, 4-(4-((1R,5S)-3,8-diazabicyclo[3.2.1]oct-6-en-3-yl)-8-fluoro-2-(((S)-1-methylpyrrolidin-2-yl)methoxy)pyrido[4,3-d]pyrimidin-7-yl)naphthalen-2-ol diformate] were 55.2 nM, 196 nM and 30.8 nM.
As to `CN1CCC[C@H]1COc1nc(N2CC3CCC(C2)N3)c2cc(F)c(-c3cc(O)cc4ccccc34)c(F)c2n1` [Compound 160, 4-(4-((1R,5S)-3,8-diazabicyclo[3.2.1]octan-3-yl)-6,8-difluoro-2-((S)-1-methylpyrrolidin-2-yl)methoxy)quinazolin-7-yl)naphthalen-2-ol dihydrochloride], the IC50 came to 32.4 nM in experiment [1], 390 nM in experiment [2] and 27.4 nM in experiment [3].
Taken in the same sequence, the figures for `Oc1cc(-c2c(Cl)cc3c(N4CC5CCC(C4)N5)nc(OC[C@@H]4CCCN4CC4CC4)nc3c2F)c2ccccc2c1` [Compound 172, 4-(4-((1R,5S)-3,8-diazabicyclo[3.2.1]octan-3-yl)-6-chloro-2-((S)-1-(cyclopropylmethyl)pyrrolidin-2-yl)methoxy)-8-fluoroquinazolin-7-yl)naphthalen-2-ol dihydrochloride] were 62.7 nM, 658 nM and 19.3 nM.
As to `Oc1cc(-c2cc(F)c3c(N4CC5CCC(C4)N5)nc(OCCCN4C5CCC4COC5)nc3c2F)c2ccccc2c1` [Compound 253, 4-(2-(3-(3-Oxa-8-azabicyclo[3.2.1]octan-8-yl)propoxy)-4-((1R,5S)-3,8-diazabicyclo[3.2.1]octan-3-yl)-5,8-difluoroquinazolin-7-yl)naphthalen-2-ol formate], the IC50 stood at 489 nM in experiment [1], 1980 nM in experiment [2] and 63 nM in experiment [3].
As for “((3R or 3S, 7aR or 7aS)-7a-((4-((1R,5S)-3,8-diazabicyclo[3.2.1]octan-3-yl)-6-chloro-8-fluoro-7-(3-hydroxynaphthalen-1-yl)quinazolin-2-yl)oxy)methyl)hexahydro-1H-pyrrolidin-3-yl)dimethylcarbamate tristrifluoroacetate [Compound 232b]”, the IC50 in experiment [1] amounted to 14.8 nM; in experiment [2], 66.2 nM; in experiment [3], 13.5 nM.

What is called IC50 is the concentration needed to halve the response being measured.

The record behind these values is US20230365563A1, “QUINAZOLINE COMPOUND AND APPLICATION THEREOF” (SHANGHAI PHARMACEUTICALS HOLDING CO., LTD., priority 2020, published 2023).
